For series [1], the system named is TALL-1. Nature of the series: Anticancer activity against human TALL-1 cells assessed as cell growth inhibition by CellTiter-Glo luminescent assay. It counts as functional, cell-based. In general terms: Cellular ATP, detected with luciferase, serves as a proxy for viable cell number.
For series [2], the target named is Bromodomain-containing protein 3 (Homo sapiens, UniProt Q15059). Nature of the series: Binding affinity to human BRD3 domain 2 assessed as dissociation constant by isothermal titration calorimetry assay. A general note: Isothermal titration calorimetry measures the heat released or taken up as one component is titrated into another.
Chain of Bromodomain-containing protein 3 (Q15059 whole entry, the tested form may be a part): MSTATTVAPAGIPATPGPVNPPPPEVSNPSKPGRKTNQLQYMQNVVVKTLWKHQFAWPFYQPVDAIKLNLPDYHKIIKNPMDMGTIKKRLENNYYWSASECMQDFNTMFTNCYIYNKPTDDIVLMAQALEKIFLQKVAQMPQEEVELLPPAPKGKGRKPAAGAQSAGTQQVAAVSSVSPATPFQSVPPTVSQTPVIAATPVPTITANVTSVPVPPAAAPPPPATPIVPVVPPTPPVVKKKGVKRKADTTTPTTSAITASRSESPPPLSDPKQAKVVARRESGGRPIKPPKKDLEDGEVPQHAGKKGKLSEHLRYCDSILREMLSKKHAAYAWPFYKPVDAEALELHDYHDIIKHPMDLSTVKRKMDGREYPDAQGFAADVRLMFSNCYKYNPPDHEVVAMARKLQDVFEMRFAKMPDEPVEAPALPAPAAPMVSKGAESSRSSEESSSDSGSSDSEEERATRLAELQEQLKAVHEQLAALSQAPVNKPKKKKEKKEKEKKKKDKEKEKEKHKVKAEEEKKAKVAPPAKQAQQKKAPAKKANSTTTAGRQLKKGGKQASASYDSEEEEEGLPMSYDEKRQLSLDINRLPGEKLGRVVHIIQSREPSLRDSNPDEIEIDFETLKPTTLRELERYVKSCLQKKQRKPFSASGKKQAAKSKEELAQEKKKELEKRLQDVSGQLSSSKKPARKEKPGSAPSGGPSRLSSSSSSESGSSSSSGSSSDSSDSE
The target of series [3] is T1, Protein deacetylase HDAC6 (Homo sapiens, UniProt Q9UBN7).
T1 sequence (Q9UBN7 whole entry): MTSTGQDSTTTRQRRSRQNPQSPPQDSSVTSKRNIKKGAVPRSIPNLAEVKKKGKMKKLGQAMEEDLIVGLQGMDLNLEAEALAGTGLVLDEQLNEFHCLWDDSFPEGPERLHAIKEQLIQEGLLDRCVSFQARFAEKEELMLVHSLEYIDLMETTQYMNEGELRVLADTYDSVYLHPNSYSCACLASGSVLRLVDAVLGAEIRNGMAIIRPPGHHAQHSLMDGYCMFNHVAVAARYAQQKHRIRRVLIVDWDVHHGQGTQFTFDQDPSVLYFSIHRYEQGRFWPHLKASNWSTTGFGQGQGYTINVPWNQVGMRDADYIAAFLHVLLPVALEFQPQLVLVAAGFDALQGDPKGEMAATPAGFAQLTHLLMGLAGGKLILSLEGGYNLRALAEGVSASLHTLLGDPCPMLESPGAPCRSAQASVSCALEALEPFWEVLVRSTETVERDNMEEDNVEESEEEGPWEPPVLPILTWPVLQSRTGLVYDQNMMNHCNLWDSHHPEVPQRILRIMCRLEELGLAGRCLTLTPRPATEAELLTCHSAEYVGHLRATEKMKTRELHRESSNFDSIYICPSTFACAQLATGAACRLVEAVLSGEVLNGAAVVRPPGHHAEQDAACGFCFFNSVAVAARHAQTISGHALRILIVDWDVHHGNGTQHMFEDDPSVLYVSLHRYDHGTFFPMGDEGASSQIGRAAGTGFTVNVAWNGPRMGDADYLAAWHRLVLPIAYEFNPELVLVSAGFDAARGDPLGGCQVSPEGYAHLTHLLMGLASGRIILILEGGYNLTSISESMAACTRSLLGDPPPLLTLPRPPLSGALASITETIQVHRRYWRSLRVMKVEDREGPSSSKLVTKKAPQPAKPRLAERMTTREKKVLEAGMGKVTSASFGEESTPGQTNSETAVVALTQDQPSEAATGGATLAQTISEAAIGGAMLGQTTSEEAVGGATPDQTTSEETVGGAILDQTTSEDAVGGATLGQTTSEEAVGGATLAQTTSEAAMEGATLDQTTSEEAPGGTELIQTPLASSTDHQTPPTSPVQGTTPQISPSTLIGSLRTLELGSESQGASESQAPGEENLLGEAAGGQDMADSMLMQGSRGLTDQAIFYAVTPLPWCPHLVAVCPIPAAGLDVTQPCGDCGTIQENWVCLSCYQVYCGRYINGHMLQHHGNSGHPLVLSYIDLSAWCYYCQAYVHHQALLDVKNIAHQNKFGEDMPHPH
Nature of the series: Inhibition of human recombinant HDAC6 assessed as fluorescence using fluorogenic substrate ZMAL incubated for 90 min by microplate reader.

The target in series [4] is Histone deacetylase (Homo sapiens) (UniProt Q13547+O15379+Q9UBN7+Q92769+Q9UQL6+Q8WUI4+Q9BY41+Q96DB2+P56524+Q9UKV0+Q969S8). The series is described as follows: Inhibition of HDAC in human K562 cells assessed as increase in acetylated alpha-tubulin measured after 48 hrs by Western blot analysis. It counts as cell-based. On the technique in general: A western blot detects proteins with antibodies after separation by electrophoresis.

The subject of series [5] is HAL-01. The series is described as follows: Anticancer activity against human HAL-01 cells assessed as cell growth inhibition by CellTiter-Glo luminescent assay. It counts as functional, cell-based.
For series [6], the system named is HPBALL. Nature of the series: Induction of apoptosis in human HPBALL cells assessed as increase in apoptotic cells at 5 uM after 72 hrs using annexin V/PI followed by flow cytometry. It counts as functional, cell-based.
In series [7] the test system is HPBALL. The series is described as follows: Induction of apoptosis in human HPBALL cells assessed as increase in apoptotic cells at 5 uM after 48 hrs by using annexin V/PI followed by flow cytometry. In kind it is functional, cell-based.
The test system of series [8] is HPBALL. Nature of the series: Induction of apoptosis in human HPBALL cells assessed as increase in apoptotic cells at 5 uM after 24 hrs using annexin V/PI followed by flow cytometry. It counts as functional, cell-based.
For series [9], the species on record is Danio rerio. The series is described as follows: Toxicity in zebrafish embryos assessed as tail necrosis at 0.005 uM after 72 hrs by visual analysis (reference value: 0%). It counts as organism-based. The conditions noted are these: in vivo.
Series [10] has as its system Danio rerio. The series is described as follows: Toxicity in zebrafish embryos assessed as pericardial edema at 0.05 uM after 72 hrs by visual analysis (reference value: 10%). It counts as organism-based, Embryo. The conditions noted are these: in vivo.
The species entered for series [11] is Danio rerio. The series is described as follows: Toxicity in zebrafish embryos assessed as teratogenesis at 0.5 uM after 72 hrs by visual analysis (reference value: 0%). In kind it is organism-based, Embryo. The conditions noted are these: in vivo.
For series [12], the species on record is Danio rerio. The series is described as follows: Toxicity in zebrafish embryos assessed as small eyes at 5 uM after 72 hrs by visual analysis (reference value: 10%). The conditions noted are these: in vivo. It counts as organism-based, Embryo.
Series [13] is filed under the species Danio rerio. The series is described as follows: Toxicity in zebrafish embryos assessed as cardiac teratogenesis/necrosis at 0.005 uM after 72 hrs by visual analysis (reference value: 0%). It counts as organism-based, Embryo. The note with it: in vivo.
The species entered for series [14] is Danio rerio. The series is described as follows: Toxicity in zebrafish embryos assessed as brain hemorrhage at 0.05 uM after 72 hrs by visual analysis (reference value: 0%). It counts as organism-based. The note with it: in vivo.
Series [15] is filed under the species Danio rerio. Nature of the series: Toxicity in zebrafish embryos assessed as malformation of tail at 5 uM after 72 hrs by visual analysis (reference value: 5%). It counts as organism-based. The note with it: in vivo.
The species named for series [16] is Danio rerio. Nature of the series: Toxicity in zebrafish embryos assessed as teratogenesis at 0.05 uM after 72 hrs by visual analysis (reference value: 0%). In kind it is organism-based, Embryo. The note with it: in vivo.
In series [17] the test system is Danio rerio. Nature of the series: Toxicity in zebrafish embryos assessed as pericardial edema at 5 uM after 72 hrs by visual analysis (reference value: 10%). It counts as organism-based, Embryo. The conditions noted are these: in vivo.
The subject of series [18] is HPBALL. Nature of the series: Anticancer activity against human HPBALL cells assessed as reduction in size of colony at 5 uM measured after 24 hrs by colony formation assay. In kind it is functional, cell-based.
The species entered for series [19] is Danio rerio. The series is described as follows: Toxicity in zebrafish embryos assessed as malformation of tail at 0.005 uM after 72 hrs by visual analysis (reference value: 5%). It counts as organism-based. The conditions noted are these: in vivo.
Series [20] concerns HPBALL. The series is described as follows: Induction of apoptosis in human HPBALL cells assessed as annexin V positive cells at 5 uM after 48 hrs by annexin V/PI staining measured by flow cytometry. It counts as functional, cell-based.
For series [21], the species on record is Danio rerio. The series is described as follows: Toxicity in zebrafish embryos assessed as malformation of tail at 0.5 uM after 72 hrs by visual analysis (reference value: 5%). It counts as organism-based. The note with it: in vivo.
Series [22] is filed under the species Danio rerio. The series is described as follows: Toxicity in zebrafish embryos assessed as malformation of head at 0.005 uM after 72 hrs by visual analysis (reference value: 0%). The conditions noted are these: in vivo. It counts as organism-based.
Series [23] can be described thus: Nonlethal toxicity in zebrafish embryos assessed as embryo survival at 0.5 uM after 72 hrs by visual analysis (reference value: 100%). In kind it is organism-based, Danio rerio. The note with it: in vivo.
The species named for series [24] is Danio rerio. The series is described as follows: Toxicity in zebrafish embryos assessed as teratogenesis at 0.005 uM after 72 hrs by visual analysis (reference value: 0%). It counts as organism-based, Embryo. The note with it: in vivo.
Series [25] is filed under the species Danio rerio. The series is described as follows: Toxicity in zebrafish embryos assessed as cardiac teratogenesis/necrosis at 0.05 uM after 72 hrs by visual analysis (reference value: 0%). In kind it is organism-based, Embryo. The conditions noted are these: in vivo.
The species named for series [26] is Danio rerio. Nature of the series: Toxicity in zebrafish embryos assessed as cardiac teratogenesis/necrosis at 0.5 uM after 72 hrs by visual analysis (reference value: 0%). In kind it is organism-based, Embryo. The conditions noted are these: in vivo.
Series [27] relates to K562. The series is described as follows: Induction of apoptosis in human K562 cells assessed as apoptosis at 2.9 uM after 24 to 72 hrs using annexin V/PI followed by flow cytometry. In kind it is functional, cell-based. The conditions noted are these: time 24-72 hrs.

The source made the active and inactive calls. The calls are words filed in the database; no cut-off is given here.

Regarding `CCc1c(C(=O)Nc2cc(/C=C/C(=O)NO)ccc2OC)[nH]c(C)c1C(C)=O`, the IC50 (commonly the concentration at which inhibition is half-maximal) in series [1] was 2.88 µM; in series [3] it was 0.042 µM; in series [5], more than 25 µM. Besides, the Kd (commonly the concentration at which binding is half-saturated) in series [2] worked out at 7.55 µM. Also, the result in [4], in series [7] and in series [8] was Active. Moreover, the outcome in series [6] was inactive.

In the case of `Cc1[nH]c(C(=O)Nc2cc(S(=O)(=O)N3CCOCC3)ccc2OCCCCCCCC(=O)NO)c2c1C(=O)CCCC2`, the figures for the IC50 in series [1], in series [3] and in series [5] were 2.93 µM, 0.067 µM and 5.93 µM, respectively. Further, the Activity in [9] was determined as 15%; in [10], 10%; in [11], 15%; in series [12], 5%; in series [13], 0%; in series [14], 0%. Further, the Activity in series [15] amounted to 10%; in [16], 10%; in series [17], 10%; in [19], 5%; in series [21] it was 15%; in series [22], 15%. In addition, the Activity is 15% in series [24], 0% in series [25] and 0% in series [26]. In addition, the Kd in [2] was determined as 0.1 µM. The outcome in series [4], in series [18] and in series [20] was Active. The survival at 72 h, 0.5 µM in series [23] is 100%.

For the compound `COc1ccc(S(=O)(=O)n2ccc(/C=C/C(=O)NO)c2)cc1NC(=O)c1[nH]c(C)c2c1CCCCC2=O`, the IC50 in [1] is 2.33 µM; in series [3], 0.046 µM; in series [5], 6.41 µM. Moreover, the result in series [27], in series [4], in series [6], in series [7] and in series [8] was Active. The Kd in [2] was 3.75 µM.

The record behind these values is ChEMBL document CHEMBL5055650, “4-Acyl Pyrrole Capped HDAC Inhibitors: A New Scaffold for Hybrid Inhibitors of BET Proteins and Histone Deacetylases as Antileukemia Drug Leads” (J Med Chem, 2021).
